Source: the NIST ThermoML archive (doi:10.1021/acs.jced.8b00692)

Test: xn = mol fraction of the nth substance listed
Settings: 102 kPa, Liquid; for viscosity: Concentric cylinders viscometry; for speed of sound: Frequency=3 MHz, Single path-length method; for mass density: Vibrating tube method

CCCCCCCCC1CCCCC1 [octylcyclohexane] + CCCCCCCCCCCCCCCC
Settings	mass density [kg/m3]	speed of sound [m/s]	viscosity [mPa·s]
293.15 K, x1 = 0.2001	780.29	1361.6	3.46
293.15 K, x1 = 0.3999	787.74	1366.8	3.46
293.15 K, x1 = 0.5002	791.67	1369.7	3.46
293.15 K, x1 = 0.6009	795.83	1372.6	3.44
293.15 K, x1 = 0.8006	804.62	1378.6	3.46
293.15 K, x1 = 1	814.14	1387	3.52
303.15 K, x1 = 0.2001	773.36	1324.4	2.75
303.15 K, x1 = 0.3999	780.82	1329.6	2.74
303.15 K, x1 = 0.5002	784.77	1332.1	2.75
303.15 K, x1 = 0.6009	788.93	1335	2.74
303.15 K, x1 = 0.8006	797.71	1341.3	2.76
303.15 K, x1 = 1	807.22	1349.1	2.79
313.15 K, x1 = 0.2001	766.44	1287.9	2.24
313.15 K, x1 = 0.3999	773.91	1293	2.23
313.15 K, x1 = 0.5002	777.87	1295.4	2.24
313.15 K, x1 = 0.6009	782.03	1298.3	2.23
313.15 K, x1 = 0.8006	790.79	1304.6	2.24
313.15 K, x1 = 1	800.29	1312.1	2.27
323.15 K, x1 = 0.2001	759.53	1252	1.85
323.15 K, x1 = 0.3999	767	1257.2	1.84
323.15 K, x1 = 0.5002	770.97	1259.5	1.85
323.15 K, x1 = 0.6009	775.12	1262.4	1.85
323.15 K, x1 = 0.8006	783.86	1268.6	1.85
323.15 K, x1 = 1	793.36	1275.9	1.88
333.15 K, x1 = 0.2001	752.62	1217.1	1.56
333.15 K, x1 = 0.3999	760.08	1222.1	1.55
333.15 K, x1 = 0.5002	764.05	1224.6	1.56
333.15 K, x1 = 0.6009	768.2	1227.3	1.56
333.15 K, x1 = 0.8006	776.93	1233.7	1.56
333.15 K, x1 = 1	786.42	1240.5	1.58
343.15 K, x1 = 0.2001	745.7	–	1.34
343.15 K, x1 = 0.3999	753.2	–	1.33
343.15 K, x1 = 0.5002	757.2	–	1.35
343.15 K, x1 = 0.6009	761.3	–	1.33
343.15 K, x1 = 0.8006	770	–	1.34
343.15 K, x1 = 1	779.5	–	1.36
353.15 K, x1 = 0.2001	738.8	–	1.15
353.15 K, x1 = 0.3999	746.3	–	1.15
353.15 K, x1 = 0.5002	750.2	–	1.15
353.15 K, x1 = 0.6009	754.3	–	1.15
353.15 K, x1 = 0.8006	763.1	–	1.16
353.15 K, x1 = 1	772.5	–	1.16
363.15 K, x1 = 0.2001	731.8	–	1.02
363.15 K, x1 = 0.3999	739.3	–	1
363.15 K, x1 = 0.5002	743.3	–	1.03
363.15 K, x1 = 0.6009	747.4	–	1.01
363.15 K, x1 = 0.8006	756.1	–	1.01
363.15 K, x1 = 1	765.5	–	1.04
373.15 K, x1 = 0.2001	724.8	–	0.887
373.15 K, x1 = 0.3999	732.3	–	0.889
373.15 K, x1 = 0.5002	736.3	–	0.89
373.15 K, x1 = 0.6009	740.4	–	0.895
373.15 K, x1 = 0.8006	749.1	–	0.897
373.15 K, x1 = 1	758.5	–	0.899

CCCCCCCCCCC1CCCCC1 [decylcyclohexane] + CCCCCCCCCCCCCCCC
Settings	mass density [kg/m3]	speed of sound [m/s]	viscosity [mPa·s]
293.15 K, x1 = 0.2	781.98	1366.2	3.73
293.15 K, x1 = 0.4	790.75	1375.8	4.03
293.15 K, x1 = 0.4999	795.26	1380.7	4.19
293.15 K, x1 = 0.6008	799.82	1385.6	4.36
293.15 K, x1 = 0.7237	805.48	1392	4.63
293.15 K, x1 = 1	818.55	1406.7	5.32
303.15 K, x1 = 0.2	775.08	1329	2.95
303.15 K, x1 = 0.4	783.89	1338.4	3.16
303.15 K, x1 = 0.4999	788.42	1343.3	3.29
303.15 K, x1 = 0.6008	792.99	1348.3	3.41
303.15 K, x1 = 0.7237	798.67	1354.7	3.6
303.15 K, x1 = 1	811.78	1369.4	4.09
313.15 K, x1 = 0.2	768.19	1292.6	2.39
313.15 K, x1 = 0.4	777.04	1301.9	2.54
313.15 K, x1 = 0.4999	781.59	1306.8	2.64
313.15 K, x1 = 0.6008	786.18	1311.8	2.73
313.15 K, x1 = 0.7237	791.88	1318.3	2.87
313.15 K, x1 = 1	805.02	1333	3.23
323.15 K, x1 = 0.2	761.3	1256.8	1.97
323.15 K, x1 = 0.4	770.2	1266.2	2.09
323.15 K, x1 = 0.4999	774.76	1271.1	2.18
323.15 K, x1 = 0.6008	779.37	1276.2	2.24
323.15 K, x1 = 0.7237	785.08	1282.7	2.34
323.15 K, x1 = 1	798.27	1297.5	2.62
333.15 K, x1 = 0.2	754.42	1221.9	1.65
333.15 K, x1 = 0.4	763.35	1231.6	1.75
333.15 K, x1 = 0.4999	767.92	1236.3	1.81
333.15 K, x1 = 0.6008	772.55	1241.5	1.87
333.15 K, x1 = 0.7237	778.28	1248.2	1.95
333.15 K, x1 = 1	791.5	1262.9	2.16
343.15 K, x1 = 0.2	747.5	–	1.42
343.15 K, x1 = 0.4	756.5	–	1.48
343.15 K, x1 = 0.4999	761.3	–	1.54
343.15 K, x1 = 0.6008	765.8	–	1.58
343.15 K, x1 = 0.7237	771.6	–	1.64
343.15 K, x1 = 1	784.8	–	1.82
353.15 K, x1 = 0.2	740.7	–	1.21
353.15 K, x1 = 0.4	749.7	–	1.28
353.15 K, x1 = 0.4999	754.4	–	1.32
353.15 K, x1 = 0.6008	759	–	1.36
353.15 K, x1 = 0.7237	764.8	–	1.41
353.15 K, x1 = 1	778	–	1.55
363.15 K, x1 = 0.2	733.7	–	1.08
363.15 K, x1 = 0.4	742.8	–	1.1
363.15 K, x1 = 0.4999	747.6	–	1.17
363.15 K, x1 = 0.6008	752.1	–	1.18
363.15 K, x1 = 0.7237	758	–	1.22
363.15 K, x1 = 1	771.2	–	1.34
373.15 K, x1 = 0.2	726.8	–	0.926
373.15 K, x1 = 0.4	735.9	–	0.979
373.15 K, x1 = 0.4999	740.7	–	1.01
373.15 K, x1 = 0.6008	745.2	–	1.04
373.15 K, x1 = 0.7237	751.1	–	1.07
373.15 K, x1 = 1	764.4	–	1.17
